Test results published in US9125930B2, “EGFR aptamer inhibitor for use in therapy and diagnosis” (CONSIGLIO NAZIONALE DELLE RICERCHE, priority 2010, dated 2015).

How the values were obtained:
A549 cells [1] = assay: Cell viability assay, A549 cells; format: cell-based, human; conditions: dose-dependent experiments, 0.1-10 μM
Method: Cell viability was assessed with CellTiter 96® AQueous One Solution Cell Proliferation Assay (Promega, Madison, Wis.) according to according to the supplier's instructions. […] The optical density (OD) was measured using a Multilabel Counter (Bio-Rad) at a wavelength of 490 nm and cell viability was calculated by the following formula: Cell viability (%)=(OD treated cells/OD control cells)×100%. FACS Analysis

EGFR = EGFR (Homo sapiens, UniProt P00533); assay: Immunoblot of EGF-dependent EGFR phosphorylation in A549 cells; format: cell-based; design: endogenous in cells; host or cells: A549; conditions: 200 nM aptamer, following 5 min of EGFR stimulation
Method: […] The aptamers were subjected to a short denaturation-renaturation step (85° C. for 5 min, snap-cooled on ice for 2 min, and allowed to warm up to 37° C.) before each treatment. To prepare cell extracts, cells were washed twice in ice-cold PBS, and lysed in buffer A (50 mM Tris-HCl pH 8.0 buffer containing 150 mM NaCl, 1% Nonidet P-40, 2 mg/ml aprotinin, 1 mg/ml pepstatin, 2 mg/ml leupeptin, 1 mM Na3VO4). Protein concentration was determined by the Bradford assay using bovine serum albumin as the standard. The cell lysates were subjected to SDS-PAGE. Gels were electroblotted into polyvinylidene difluoride membranes (Millipore Co., Bedford, Mass.), and filters were probed with the indicated primary antibodies: anti-EGFR and anti-phospho-EGFR (Tyr1062), anti-phospho-44/42 MAP kinase (E10) (also indicated as p-Erk), anti-phospho-Akt, anti-Akt and anti-phospho-STAT3 (Tyr705), anti-ErbB2 (all from Cell Signaling, Beverly, Mass., United States); anti-Erk1, anti-EGFR, anti-ErbB3, anti-ErbB4 (C-16) (Santa Cruz Biotechnology, California, United States); anti-α-αtubulin (DM 1A) (Sigma, St. Louis, Mo.).
Proteins were visualized with peroxidase-conjugated secondary antibodies using the enhanced chemiluminescence system (GE Healthcare Bio-Sciences, Uppsala, Sweden). […]

A431 tumors = assay: Tumor growth in A431 mouse xenograft; format: in vivo; conditions: 200 pmoles intratumoral, three times a week for two weeks
Method: Athymic nude mice (nu/nu) were maintained in a sterile environment according to guidelines for Animal Care. Mice were inoculated with either 3×10^6 (in 100 μl) in vitro propagated A431 cells subcutaneously injected into each flank. Approximately 24 non-necrotic tumors for each tumor type, of about 1 cm in diameter, were randomly divided into three groups of eight mice per treatment group as follows: group 1, no treatment; group 2, treated with scrambled RNA as a negative control (200 pmols/injection); group 3, treated with CL4 42-81 (200 pmols/injection). Compounds were injected intra-tumorally in 100-1 μl volumes three times a week for two weeks. Day 0 marks the first day of injection. The aptamers may also be administered systemically, in particular when optimized by addition of polyethylene glycol (PEG).
The volume injections are small enough to preclude the compounds being forced inside the cells due to a nonspecific high-pressure injection. Tumors were measured every 3 days with calipers in three dimensions. The following formula was used to calculate tumor volume: VT=(W×L×H)×0.5236 (W, the shortest dimension; L, the longest dimension; H, the intermediate dimension). The growth curves are plotted as the means tumor volume±s.e.m. Statistical analysis of tumor size data was conducted using a one-way ANOVA. A P-value of 0.05 or less was considered to indicate a significant difference. […]

A549 cells [2] = assay: Apoptosis assay by PI staining and FACS; format: cell-based, human; design: dose or concentration left out as unconfirmed; conditions: A549, 24 hs or 48 hs
Method: For apoptosis assay, DNA content analysis was performed by staining with propidium iodide (PI) and analyzing cells by flow cytometry (FACS).
[…] Cells were incubated with 2 μg/ml propidium iodide (PI, Sigma, St. Louis, Mo.) for 30 min at 4° C. and recovered. The relative proportion of cells with DNA content indicative of apoptosis (ipoploid) was determined by FACS.

A549 cells [3] = assay: Binding of [32P]-labeled aptamer on A549 cells; design: species or system human; conditions: binding to A549 target cells
Method: Binding experiments were performed with 5′-[^32P]-labeled RNA. For labeling 2′-F-Py RNAs were 5′-end dephosphorylated using bacterial alcaline phosphatase (Invitrogen, Carlsbad, Calif.) before [^32P]-5′-end-labeled using T4 kinase (Invitrogen) and γ-[^32P]-ATP (6×10^3 Ci/mmol, GE Healthcare Bio-Sciences, Uppsala, Sweden) according to the supplier's instructions.
For binding experiments on cells, 3.5×10^4 cells were plated in 24-well plates in triplicate and were incubated with CL4 42-81 aptamer the scrambled sequence used as a negative control at 100 nM concentration in 200 μl of DMEM serum free for 20 min at RT in the presence of 100 μg/ml polyinosine as a nonspecific competitor (Sigma, St. Louis, Mo.). After five washings with 500 μl DMEM, bound sequences were recovered in 300 μl of SDS 1%, and the amount of radioactivity recovered was counted.

COc1cc2ncnc(Nc3ccc(F)c(Cl)c3)c2cc1OCCCN1CCOCC1 [gefitinib, reference compound]
sensitivity of A549 cell viability (A549 cells [1]): resistant

scrambled aptamer: scrambled aptamer used as negative control: 5′ UUCGUACCGGGUAGGUUGGCUUGCACAUAGAACGUGUCA 3′ (SEQ ID NO: 2) (listed as RNA, chemistry not given here) [reference compound]
inhibition of EGF-dependent phosphorylation of EGFR (EGFR): No effect | tumor volume (A431 tumors): not observed | effect on percentage of apoptotic cells (A549 cells [2]): No effect

B1: CL4: entire 92 nt aptamer generated by differential cell-SELEX on A549 cells (SEQ ID NO: 4), parent of CL4 42-81 (nucleic acid)
chain: GGGAGACAAGAAUAAACGCUCAACGACACGUUGCCAGCCGGAGCCUUAGUAACGUGCUUUGAUGUCGAUUCGACAGGAGGCUCACAACAGGC
modifications: listed as RNA, chemistry not given here
Kd (A549 cells [3]): 46 nM
